Measurements taken from patent publication US20100022531A1, “NOVEL COMPOUNDS AS P2X7 MODULATORS AND USES THEREOF” (RENOVIS, INC., priority 2005, published 2010).
Where two headings read alike, the source gives them in different places.

Molecular target: T1, P2X7 receptor (Homo sapiens, UniProt Q99572)
T1 construct: host or cells: THP-1 cells differentiated with LPS and IFN-γ
T1 sequence (Q99572 1-595): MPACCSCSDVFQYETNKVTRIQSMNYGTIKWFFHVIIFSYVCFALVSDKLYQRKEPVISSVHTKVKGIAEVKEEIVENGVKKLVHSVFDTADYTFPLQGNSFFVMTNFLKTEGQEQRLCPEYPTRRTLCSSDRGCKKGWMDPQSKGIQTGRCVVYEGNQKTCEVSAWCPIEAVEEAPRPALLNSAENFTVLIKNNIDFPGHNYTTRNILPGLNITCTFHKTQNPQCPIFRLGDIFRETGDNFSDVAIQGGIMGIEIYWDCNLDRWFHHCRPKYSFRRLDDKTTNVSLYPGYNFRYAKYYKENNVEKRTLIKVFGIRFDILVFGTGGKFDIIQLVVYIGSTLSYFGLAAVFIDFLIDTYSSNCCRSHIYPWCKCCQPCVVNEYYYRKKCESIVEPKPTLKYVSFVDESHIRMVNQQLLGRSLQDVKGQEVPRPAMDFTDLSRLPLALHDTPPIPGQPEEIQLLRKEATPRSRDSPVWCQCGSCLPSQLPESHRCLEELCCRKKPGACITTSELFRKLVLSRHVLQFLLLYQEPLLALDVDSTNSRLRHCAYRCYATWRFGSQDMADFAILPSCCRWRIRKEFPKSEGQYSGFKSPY
Assay: Alternate method for IL-1β release assay (differentiated THP-1 cells, BzATP-stimulated, ELISA)
Format: cell-based
Settings: P2X7; for inhibition at 0.03 µM: at 0.03 μM (asterisk symbols), read-out: IL-1β % inhib @ 0.3 μM or @ 0.03 μM; for inhibition at 0.1 µM: read-out: IL-1β % inhib @ 0.1 μM; for inhibition at 0.3 µM: read-out: IL-1β % inhib @ 0.3 μM
How it was run: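 After 16 h differentiation with 100 ng/mL LPS and 100 ng/mL IFN-γ plus a further 2 h LPS priming, THP-1 cells were pretreated 30 min with compound, then stimulated with 250 uM BzATP (final) for 45 min. Supernatant IL-1β measured by ELISA; percent inhibition from background-adjusted levels versus untreated cells.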

[1] = 0.1 μM compound (symbols + to ++++)
[2] = 0.3 μM compound (asterisk symbols)
[3] = 0.3 μM compound (symbols * to ****)

| Structure (SMILES) | inhibition at 0.3 µM [2] [%] | inhibition at 0.3 µM [3] [%] | also measured |
| --- | --- | --- | --- |
| C[C@H](N)C(=O)N1CCc2c(ncnc2NCC(O)C23CC4CC(CC(C4)C2)C3)C1 (stereo partly drawn) [Compound 713, (S)-1-[4-(2-Adamantan-1-yl-2-hydroxy-ethylamino)-5,8-dihydro-6H-pyrido[3,4-d]pyrimidin-7-yl]-2-amino-propan-1-one] | – | – | inhibition at 0.03 µM: 0 to 25% |
| O=C(OCc1ccoc1)N1CCc2c(ncnc2NCC23CC4CC(CC(C4)C2)C3)C1 [Compound 340] | – | – | inhibition at 0.1 µM [1]: 50 to 75% |
| Cc1ccc(C(=O)N2CCc3c(ncnc3NCC34CC5CC(CC(C5)C3)C4)C2)cc1 [Compound 144] | 50 to 75 | – | – |
| O=C(CN1CCN(c2ncncn2)CC1)N1CCc2c(ncnc2NCC2C3CC4CC(C3)CC2C4)C1 (stereo not shown) [Compound 302] | – | 25 to 50 | – |
| O=C(C1CC1)N1CCc2c(ncnc2NCC23CC4CC(CC(C4)C2)C3)C1 [Compound 115, 4-[(Adamantan-1-ylmethyl)-amino]-5,8-dihydro-6H-pyrido[3,4-d]pyrimidin-7-yl-cyclopropyl-methanone] | – | – | inhibition at 0.1 µM (0.1 μM compound (plus symbols)): > 75% |
| O=C(CN1CCC(F)(F)CC1)N1CCc2c(ncnc2NCC2C3CC4CC(C3)CC2C4)C1 (stereo not shown) [Compound 310] | – | 0 to 25 | – |
| O=C(c1cccc(Cl)c1Cl)N1CCc2c(ncnc2NCC23CC4CC(CC(C4)C2)C3)C1 [Compound 137] | > 75 | – | – |
| CN(CCc1ccccc1)CC(=O)N1CCc2c(ncnc2NCC2C3CC4CC(C3)CC2C4)C1 (stereo not shown) [Compound 284] | – | > 75 | – |
| Cc1nn(-c2ccccc2)nc1COC(=O)N1CCc2c(ncnc2NCC23CC4CC(CC(C4)C2)C3)C1 [Compound 345] | – | – | inhibition at 0.1 µM [1]: 25 to 50% |
| O=S(=O)(c1ccc(Oc2ccc(C(F)(F)F)cc2)cc1)N1CCc2c(ncnc2NCC23CC4CC(CC(C4)C2)C3)C1 [Compound 33] | 0 to 25 | – | – |
| O=C(OCc1ccncc1)N1CCc2c(ncnc2NCC23CC4CC(CC(C4)C2)C3)C1 [Compound 343] | – | – | inhibition at 0.1 µM [1]: 0 to 25% |
| COc1ccc(Oc2ccc(S(=O)(=O)N3CCc4c(ncnc4NCC45CC6CC(CC(C6)C4)C5)C3)cc2)cc1 [Compound 32] | 0 to 25 | – | – |
| O=S(=O)(c1ccccc1Cl)N1CCc2c(ncnc2NCC23CC4CC(CC(C4)C2)C3)C1 [Compound 48] | > 75 | – | – |
| O=C(OCc1cncs1)N1CCc2c(ncnc2NCC23CC4CC(CC(C4)C2)C3)C1 [Compound 349] | – | – | inhibition at 0.1 µM [1]: 0 to 25% |
| O=C(COc1ccc(Cl)cc1)N1CCc2c(ncnc2NCC23CC4CC(CC(C4)C2)C3)C1 [Compound 119] | 25 to 50 | – | – |
| O=S(=O)(Cc1ccc(Cl)cc1)N1CCc2c(ncnc2NCC23CC4CC(CC(C4)C2)C3)C1 [Compound 45] | 25 to 50 | – | – |

| Structure (SMILES) | inhibition at 0.3 µM [2] [%] | inhibition at 0.3 µM [3] [%] | also measured |
| --- | --- | --- | --- |
| Cc1cc(C(=O)N2CCc3c(ncnc3NCC34CC5CC(CC(C5)C3)C4)C2)nn1C [Compound 139] | 0 to 25 | – | – |
| O=S(=O)(c1ccc2ccccc2c1)N1CCc2c(ncnc2NCC23CC4CC(CC(C4)C2)C3)C1 [Compound 6] | 0 to 25 | – | – |
| O=C(OCc1cnccn1)N1CCc2c(ncnc2NCC23CC4CC(CC(C4)C2)C3)C1 [Compound 348] | – | – | inhibition at 0.1 µM [1]: 25 to 50% |
| O=C(OCc1ccc(C(F)(F)F)cc1)N1CCc2c(ncnc2NCC23CC4CC(CC(C4)C2)C3)C1 [Compound 324] | – | – | inhibition at 0.1 µM [1]: 50 to 75% |
| C[C@@H](NC(=O)OC(C)(C)C)C(=O)N1CCc2c(ncnc2NCC(O)C23CC4CC(CC(C4)C2)C3)C1 (stereo partly drawn) [Compound 710, {(R)-2-[4-(2-Adamantan-1-yl-2-hydroxy-ethylamino)-5,8-dihydro-6H-pyrido[3,4-d]pyrimidin-7-yl]-1-methyl-2-oxo-ethyl}-carbamic acid tert-butyl ester] | – | – | inhibition at 0.03 µM: 0 to 25% |
| O=S(=O)(Cc1ccc(Cl)c(Cl)c1)N1CCc2c(ncnc2NCC23CC4CC(CC(C4)C2)C3)C1 [Compound 41] | 0 to 25 | – | – |
| O=S(=O)(c1ccccc1F)N1CCc2c(ncnc2NCC23CC4CC(CC(C4)C2)C3)C1 [Compound 24] | – | – | inhibition at 0.1 µM (0.1 μM compound (plus symbols)): > 75% |
| O=C(CN1CCOCC1)N1CCc2c(ncnc2NCC2C3CC4CC(C3)CC2C4)C1 (stereo not shown) [Compound 272] | – | 0 to 25 | – |
| O=C(CN1CCN(c2ncccn2)CC1)N1CCc2c(ncnc2NCC2C3CC4CC(C3)CC2C4)C1 (stereo not shown) [Compound 301] | – | 0 to 25 | – |
| COc1cccc(CC(=O)N2CCc3c(ncnc3NCC34CC5CC(CC(C5)C3)C4)C2)c1 [Compound 116] | 25 to 50 | – | – |
| O=C(CNC1CCN(Cc2ccccc2)CC1)N1CCc2c(ncnc2NCC23CC4CC(CC(C4)C2)C3)C1 [Compound 261] | – | 25 to 50 | – |
| CCc1ccc(CN(C)CC(=O)N2CCc3c(ncnc3NCC3C4CC5CC(C4)CC3C5)C2)cc1 (stereo not shown) [Compound 309] | – | 25 to 50 | – |
| CN1CCC(N(C)CC(=O)N2CCc3c(ncnc3NCC3C4CC5CC(C4)CC3C5)C2)C1 (stereo not shown) [Compound 314] | – | 0 to 25 | – |
| COc1cc(OC)cc(C(=O)N2CCc3c(ncnc3NCC34CC5CC(CC(C5)C3)C4)C2)c1 [Compound 101] | 0 to 25 | – | – |
| CN(CC(=O)N1CCc2c(ncnc2NCC2C3CC4CC(C3)CC2C4)C1)Cc1ccco1 (stereo not shown) [Compound 295] | – | 0 to 25 | – |
| CN1CCOc2cc(S(=O)(=O)N3CCc4c(ncnc4NCC45CC6CC(CC(C6)C4)C5)C3)ccc21 [Compound 17] | 0 to 25 | – | – |

The next lines start with results.

| inhibition at 0.3 µM [2] [%] | inhibition at 0.3 µM [3] [%] | Structure (SMILES) | also measured |
| --- | --- | --- | --- |
| 25 to 50 | – | O=S(=O)(c1cc(C(F)(F)F)ccc1Cl)N1CCc2c(ncnc2NCC23CC4CC(CC(C4)C2)C3)C1 [Compound 37] | – |
| 25 to 50 | – | O=C(c1ccc(Cl)c(Cl)c1)N1CCc2c(ncnc2NCC23CC4CC(CC(C4)C2)C3)C1 [Compound 100] | – |
| 0 to 25 | – | c1ccc(CCCN2CCc3c(ncnc3NCC34CC5CC(CC(C5)C3)C4)C2)cc1 [Compound 170] | – |
| – | 0 to 25 | Brc1ccc(CN2CCc3c(ncnc3NCC34CC5CC(CC(C5)C3)C4)C2)cn1 [Compound 224] | – |
| – | > 75 | Fc1cc(Cl)ccc1CN1CCc2c(ncnc2NCC23CC4CC(CC(C4)C2)C3)C1 [Compound 246] | – |
| – | > 75 | Fc1cccc(CN2CCc3c(ncnc3NCC34CC5CC(CC(C5)C3)C4)C2)c1 [Compound 216] | – |
| > 75 | – | O=S(=O)(c1c(F)cccc1F)N1CCc2c(ncnc2NCC23CC4CC(CC(C4)C2)C3)C1 [Compound 63] | – |
| > 75 | – | O=C(c1cc(F)ccc1F)N1CCc2c(ncnc2NCC23CC4CC(CC(C4)C2)C3)C1 [Compound 134] | – |
| 0 to 25 | – | c1ccc2cc(CN3CCc4c(ncnc4NCC45CC6CC(CC(C6)C4)C5)C3)ccc2c1 [Compound 176] | – |
| – | > 75 | CC(C)(C)CN1CCc2c(ncnc2NCC23CC4CC(CC(C4)C2)C3)C1 [Compound 211] | – |
| 25 to 50 | – | O=C(c1ccc(C(F)(F)F)cc1F)N1CCc2c(ncnc2NCC23CC4CC(CC(C4)C2)C3)C1 [Compound 121] | – |
| 25 to 50 | – | O=C(c1cccc(C(F)(F)F)c1)N1CCc2c(ncnc2NCC23CC4CC(CC(C4)C2)C3)C1 [Compound 89] | – |
| – | > 75 | COc1ccccc1CN1CCc2c(ncnc2NCC23CC4CC(CC(C4)C2)C3)C1 [Compound 226] | – |
| 0 to 25 | – | O=S(=O)(c1ccccc1C(F)(F)F)N1CCc2c(ncnc2NCC23CC4CC(CC(C4)C2)C3)C1 [Compound 51] | – |
| 50 to 75 | – | O=C(c1ccc(F)cc1F)N1CCc2c(ncnc2NCC23CC4CC(CC(C4)C2)C3)C1 [Compound 132] | – |
| – | 0 to 25 | Clc1cc2c(cc1CN1CCc3c(ncnc3NCC34CC5CC(CC(C5)C3)C4)C1)OCO2 [Compound 210] | – |
| – | > 75 | Fc1cc(C(F)(F)F)ccc1CN1CCc2c(ncnc2NCC23CC4CC(CC(C4)C2)C3)C1 [Compound 223] | – |
| – | 50 to 75 | CCOc1cccc(CN2CCc3c(ncnc3NCC34CC5CC(CC(C5)C3)C4)C2)c1 [Compound 236] | – |
| – | > 75 | Brc1cccc(CN2CCc3c(ncnc3NCC34CC5CC(CC(C5)C3)C4)C2)c1 [Compound 225] | – |
| 25 to 50 | – | Clc1ccc(CN2CCc3c(ncnc3NCC34CC5CC(CC(C5)C3)C4)C2)c(Cl)c1 [Compound 181] | – |
| 25 to 50 | – | O=S(=O)(c1ccc(F)cc1)N1CCc2c(ncnc2NCC23CC4CC(CC(C4)C2)C3)C1 [Compound 13] | – |
| – | > 75 | N#Cc1cc(CN2CCc3c(ncnc3NCC34CC5CC(CC(C5)C3)C4)C2)ccc1F [Compound 206] | – |
| – | > 75 | COc1cccc(CN2CCc3c(ncnc3NCC34CC5CC(CC(C5)C3)C4)C2)c1OC [Compound 202] | – |
| 25 to 50 | – | O=S(=O)(c1ccc(Cl)cc1F)N1CCc2c(ncnc2NCC23CC4CC(CC(C4)C2)C3)C1 [Compound 59] | – |
| > 75 | – | O=C(c1cccc(Cl)c1)N1CCc2c(ncnc2NCC23CC4CC(CC(C4)C2)C3)C1 [Compound 108] | – |
| – | 0 to 25 | COc1cc(F)c(CN2CCc3c(ncnc3NCC34CC5CC(CC(C5)C3)C4)C2)cc1OC [Compound 234] | – |
